Measurements: US20250195500A1, “INJECTABLE PREPARATION COMPRISING ISOXAZOLINE DERIVATIVE, AND PREPARATION METHOD THEREFOR” (LG CHEM, LTD., priority 2022, published 2025)
Entries after “also recorded” stand apart in the source; their conditions may differ.

Key:
[1] = Solubility in solvents of various compositions; type: physicochemical
Excerpt: Further, it was confirmed that the compound of Formula 1 has the property of reducing the pH of a solution while being dissolved in a solvent.

caspase = assay: Caspase inhibitory activity; type: biochemical; conditions: form present in aqueous solution
[2] = Conversion from compound of Formula 2 to compound of Formula 3 according to pH of solvent; type: physicochemical

solubility in solvent ([1]; basic solvent pH 9.0 or higher, strong acidic solvent pH 1 or lower or specific solvent that can be freeze-dried)	production of compound of Formula 3 from compound of Formula 2 ([2]; acidic solvent)	production of compound of Formula 3 from compound of Formula 2 ([2]; neutral or more basic solvent)	Structure (SMILES)	solubility in water ([1]; water)	caspase inhibitory activity (caspase)
dissolves well	–	–	CC(C)[C@@]1(C(=O)NC2CC(=O)OC2(O)CF)CC(c2nccc3ccccc23)=NO1 (stereo in doubt) [compound of Formula 1, (R)—N-((2S,3S)-2-(fluoromethyl)-2-hydroxy-5-oxotetrahydrofuran-3-yl)-5-isopropyl-3-(isoquinolin-1-yl)-4,5-dihydroisoxazol-5-carboxamide]	poorly soluble in water; also recorded: hardly soluble in water	–
–	–	–	CC(C)[C@@]1(C(=O)N[C@@H](CC(=O)O)C(=O)CF)CC(c2nccc3ccccc23)=NO1 [compound of Formula 2]	–	active form
–	hardly produced	rapidly produced	CC(C)[C@@]1(C(=O)N[C@H](CC(=O)O)C(=O)CF)CC(c2nccc3ccccc23)=NO1 [compound of Formula 3]	–	does not show the caspase inhibitory activity
